The values that follow come from patent US8288399B2, “Medicine containing pyrimidine derivative” (BTG International Limited, priority 2001, dated 2012).

What all share (type): cell-based
Experiment [1] concerns Mouse abdominal cavity macrophages. Description: Suppression of macrophage activation caused by LPS (control), nitrogen monoxide production (Griess). Conditions: LPS 500 pg/ml instead of Aβ, 72 hours, culture medium containing only mouse interferon γ, NO production, read-out: IC50 (μg/ml) LPS. The procedure:
(§1) Suppression of microglia activation caused by β-amyloid Mouse abdominal cavity macrophages were prepared as follows for use as a model for microglia. A mouse (C3H/He, N, male, 7-10 weeks old: Nippon SLC) was subjected to cervical vertebrae dislocation then sprayed with 70% ethanol, the skin of the abdomen was cut open leaving the muscularis, from 5 to 7 ml of PBS (phosphate buffered saline) were injected into the abdominal cavity using a 24 G injection needle, the back was squeezed firmly, then injection solution was drawn from the abdominal cavity using a 23 G injection needle. The cells in the collected solution were centrifugally sedimented (900 rpm, 5 minutes) and washed using PBS, then 8×10^4/well were inoculated onto a 96-well microplate in culture solution (DMEM (Sigma), 10% FBS (Gibco), 100 U/ml penicillin+100 μg/ml streptomycin (Sigma)) and cultured in a 5% CO2/95% air incubator at 37° C. The amount of nitrogen monoxide produced was taken as an indicator of macrophage activation. Specifically, the macrophages were incubated for 72 hours in the presence of 1) Aβ1-42 (20 μg/ml: Sigma), and 2) Aβ1-42 and the test compound, then 50 μl of Griess reagent (0.1% N-(1-naphthyl)ethylenediamine (Sigma), 1% sulphanilamide (Sigma), 3% H3PO4) were added to 50 μl of the supernatant, and the light absorbance at 570 nm was measured. It should be noted that this experiment was conducted in culture solution containing mouse interferon γ (250 U/ml: genzyme techne) and polymyxin B (10 μg/ml: Sigma). Also, the same operations were performed using zymosan A (140 ng/ml: Molecular Probes) or LPS (500 pg/ml: Sigma) instead of Aβ, as controls. For LPS, culture medium containing only mouse interferon γ was used.
(§2) The concentration when the absorbance in the presence of 2) Aβ and test compound was 50% of the absorbance when 1) only Aβ 1-42 was added was taken as IC50, and the activity of the compound was appraised in terms of this value.

For experiment [2] the test system is unchanged. Description: Suppression of macrophage (microglia model) activation caused by β-amyloid, nitrogen monoxide production (Griess). Conditions: Aβ1-42 20 μg/ml, 72 hours, mouse interferon γ 250 U/ml and polymyxin B 10 μg/ml, NO production, absorbance at 570 nm. As to the method: as §1, §2
Experiment [3] has the same test system. Nature of the experiment: Suppression of macrophage activation caused by zymosan A (control), nitrogen monoxide production (Griess). Conditions: zymosan A 140 ng/ml instead of Aβ, 72 hours, mouse interferon γ and polymyxin B, NO production, read-out: IC50 (μg/ml) zymosan A. The procedure: as §1, §2
On the technique in general: The Griess reaction detects nitrite, a stable product of nitric oxide.

Values after ≈ are worked out from the molar mass of the structure shown.

Regarding `Cc1nc2ncnn2c2c1CCN2Cc1ccccc1Cl` [Compound J], the IC50 was greater than 5 µg/mL in experiment [1], 5 µg/mL (≈ 16.7 µM) in experiment [2] and greater than 5 µg/mL in experiment [3].

For `Cc1nc2ncnn2c2c1CC(C)N2Cc1ccccc1F` (stereo not drawn) [Compound D], the figures for the IC50 in experiment [1], in experiment [2] and in experiment [3] were greater than 5 µg/mL, 2.3 µg/mL (≈ 7.74 µM) and greater than 5 µg/mL, respectively.

Regarding `Cc1nc2ncnn2c2c1CCN2Cc1ccccc1F` [Compound E], the IC50 in experiment [1] was greater than 5 µg/mL; in experiment [2], 3.2 µg/mL (≈ 11.3 µM); in experiment [3], greater than 5 µg/mL.

Turning to `Cc1nc2ncnn2c2c1ccn2Cc1ccccc1Cl` [Compound G], the IC50 in experiment [1] is greater than 5 µg/mL; in experiment [2], 3.8 µg/mL (≈ 12.8 µM); in experiment [3], greater than 5 µg/mL.

For `Cc1nc2ncnn2c2c1CCN2Cc1ccccc1` [Compound I], the IC50 in experiment [1] is greater than 5 µg/mL; in experiment [2], 4.3 µg/mL (≈ 16.2 µM); in experiment [3], greater than 5 µg/mL.

Take `Cc1nc2ccnn2c2c1CCN2Cc1ccccc1` [Compound H]: the IC50 in experiment [1] is greater than 5 µg/mL; in experiment [2] it was 4 µg/mL (≈ 15.1 µM); in experiment [3] it was greater than 5 µg/mL.

`Cc1nc2ncnn2c2c1CCN2C(C)c1ccccc1` (stereo not drawn) [Compound C]: the IC50 was greater than 5 µg/mL in experiment [1], 0.4 µg/mL (≈ 1.43 µM) in experiment [2] and greater than 5 µg/mL in experiment [3].

For the molecule `Cc1nc2ncnn2c2c1CCN2C(C)(C)c1ccccc1` [Compound K], the values for the IC50 in experiment [1], in experiment [2] and in experiment [3] were greater than 5 µg/mL, 5 µg/mL (≈ 17 µM) and greater than 5 µg/mL, respectively.

`c1ccc(CCN2CCc3c(C4CC4)nc4ncnn4c32)cc1` [Compound A]: the IC50 was greater than 5 µg/mL in experiment [1], 0.4 µg/mL (≈ 1.31 µM) in experiment [2] and greater than 5 µg/mL in experiment [3].

In the case of `Cc1nc2ncnn2c2c1CCN2CCc1ccccc1` [Compound B], the results for the IC50 in experiment [1], in experiment [2] and in experiment [3] were greater than 5 µg/mL, 0.5 µg/mL (≈ 1.79 µM) and greater than 5 µg/mL, respectively.

As for `Cc1nc2ncnn2c2c1CC(C)N2Cc1ccccc1Cl` (stereo not drawn) [Compound F], the IC50 in experiment [1] is greater than 5 µg/mL; in experiment [2] it was 3.6 µg/mL (≈ 11.5 µM); in experiment [3], greater than 5 µg/mL.
